From PubChem BioAssay AID179 (DTP/NCI, 2004)
The source made the active and inactive calls.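 How the source made its calls: active means compounds giving half or more protection of infected cells from virus-caused growth loss, again on retest; inactive means the rest.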 Where a SMILES comes first, the peptide text is derived from it.

System: CEM cells HIV-1 protection, formazan growth assay
Assay: NCI AIDS Antiviral Assay
Details: for IC50: measured here: growth of uninfected CEM cells
Description: The ability of compounds to protect human CEM cells from HIV-1 infection is measured as a screen for new compounds capable of inhibiting the HIV virus. Five concentrations of drug were tested on uninfected and infected cells and cell growth was measured using a soluble formazan assay. […] Compounds that provided at least 50% protection were retested. Compounds that provided at least 50% protection on retest were listed as moderately active. Compounds that reproducibly provided 100% protection were listed as confirmed active. […] Note that the inability to provide protection could be due to toxicity.

| SMILES | EC50 [µM] | IC50 [µM] | outcome |
| --- | --- | --- | --- |
| O=C1C(=O)c2ccccc2C(O)=C1C(C1=C(O)c2ccccc2C(=O)C1=O)c1ccc(C(C2=C(O)c3ccccc3C(=O)C2=O)C2=C(O)c3ccccc3C(=O)C2=O)cc1 | > 200 | 9.55 | – |
| [N-]=[N+]=Nc1c(Cl)c(=O)n(-c2ccccc2)c2ccccc12 | > 200 | 29.5 | – |
| O=C1/C(=C/c2ccc(O)cc2)NC(=S)N1CN1CCCCC1 | > 200 | 32.4 | – |
| CC(C)c1ccc(C2NC(=S)NC3=C2c2ccccc2C3=O)cc1 (stereo not given) | > 107 | 14.8 | – |
| O=C1C=C(Nc2ccccc2C(=O)CC(=O)C(=O)Nc2ccc(Cl)c(Cl)c2)c2ccccc2C1=O | > 26.9 | > 26.9 | – |
| O=C1CCCC(=O)C1=C(O)CCCCCCCCCCc1ccccc1 | > 38 | > 38 | – |
| COc1ccc(-c2csc(=Nc3ccccc3)n2CCCN(C)C)cc1 | > 200 | 16.2 | – |
| COC(=O)/C(=C\Nc1cccc(C)n1)S(=O)(=O)c1ccc(C)cc1 | > 200 | 66.1 | – |
| O=C(N/C(=C\c1ccc(/C=C(\NC(=O)c2ccccc2)c2nc3cc(Cl)ccc3[nH]2)cc1)c1nc2cc(Cl)ccc2[nH]1)c1ccccc1 | – | – | inactive |
| CC1(C)C2CCC(CN)(C2)C1N (stereo not given) | > 200 | > 200 | – |
| Cc1ccc2c3c(c(C)nc2c1)C(=O)c1ccccc1-3 | > 10.5 | > 10.5 | – |
| CC1=C(C(=O)Nc2ccc(Cl)c(Cl)c2)C(c2ccc([N+](=O)[O-])cc2)C(C(=O)Nc2ccc(Cl)c(Cl)c2)=C(C)N1 | > 8.71 | 5.62 | – |
| COC(=O)[C@@H](O)[C@]1(C(=O)OC)C2O[C@@H](OC)[C@@H]1CCCCCC[C@H]2O | > 200 | > 200 | – |
| CCOC1N=C(c2ccccc2)c2cc(Cl)ccc2NC1=O (stereo not given) | > 22.9 | > 22.9 | – |
| O=c1[nH]c2nc3ccccc3c(=O)n2/c1=C/c1cccs1 | > 200 | 110 | – |
| Cc1ccc(NC(=O)CC(=O)n2nc(C)c(N=Nc3cccc(C)c3)c2C)cc1 | > 200 | > 200 | – |
| COc1ccc2[nH]c3cc4c(=O)c5cc(OC)ccc5[nH]c4cc3c(=O)c2c1 | > 72.4 | > 72.4 | – |
| C1CN(c2nnc(N3CCC3)nn2)C1 | – | – | inactive |
| NCCCCC1NC(=O)C(CO)NC(=O)C(Cc2cnc[nH]2)NC(=O)CNC(=O)C(Cc2c[nH]c3ccccc23)NC(=O)C(Cc2c[nH]c3ccccc23)NC(=O)C(Cc2ccccc2)NC1=O (stereo not given) (cyclo(GHSKFWW); configuration not given here) | > 50.1 | > 50.1 | – |
| CC1C=CN(N(C)C)C2=C1C(=O)c1cnccc1C2=O (stereo not given) | > 20 | 1.23 | – |
| Cc1ccc(S(=O)(=O)OC(C=O)C(O)C(O)COC(c2ccccc2)(c2ccccc2)c2ccccc2)cc1 (stereo not given) | > 24.5 | > 24.5 | – |

| SMILES | EC50 [µM] | IC50 [µM] | outcome |
| --- | --- | --- | --- |
| CC1OC2COC(C)OC2C(C2CN2)O1 (stereo not given) | > 933 | 589 | – |
| Cc1cc2[nH]c3[nH]c(=O)[nH]c(=O)c3c2cc1C | > 200 | 170 | – |
| Cc1ccc(C(=O)N(C(C)C)C(C)C)cc1N=NN(C)C | > 123 | 97.7 | – |
| COc1ccc2c(=O)c(S)coc2c1 | > 200 | 30.2 | – |
| CNS(=O)(=O)NNS(=O)(=O)c1ccc(C)cc1 | > 468 | 145 | – |
| COc1cc(/C=C/C(=O)CC(=O)/C=C/c2ccc(O)cc2)ccc1O | > 200 | 11.7 | – |
| COc1cc(-c2nnc3n2NC=C(C(=O)O)S3)cc(OC)c1OC | > 257 | > 257 | – |
| CC(CCC#N)(CCC#N)C(=O)CC(O)(C(F)(F)F)C(F)(F)F | > 200 | 2.34 | – |
| NNC(=S)NNC(N)=O | 58.9 | > 200 | – |
| CC(NC(=O)CNC(=O)C(N)CO)C(=O)NC(CCC(N)=O)C(=O)NC(CCC(=O)O)C(=O)NC(C)C(=O)NC(CCCCN)C(=O)NC(CCC(=O)O)C(=O)NC(CCC(N)=O)C(=O)NC(CCCN=C(N)N)C(=O)NC(C(=O)NC(CC(N)=O)C(=O)NC(C)C(=O)NC(Cc1cnc[nH]1)C(=O)NC(CO)C(=O)O)C(C)O (stereo not given) (H-SGAQEAKEQRTNAHS-OH; configuration not given here) | > 100 | > 100 | – |
| CCN(CC)CCNc1ccc([N+](=O)[O-])c2nc3ccc(OC)cc3c(N)c12 | > 200 | 0.331 | – |
| CCN(CC)CCn1c(=O)c2cccnc2n2c3c(=O)n(C)c(=O)n(C)c3nc12 | > 129 | 60.3 | – |
| N#CC(C#N)=Cn1c(=S)[nH]c2ccc([N+](=O)[O-])cc21 | > 200 | 89.1 | – |
| COC[C@H](Cc1ccccc1)N=Cc1ccccc1 | > 200 | > 200 | – |
| c1c2c(cc(-n3nnc4c3CCCCCC4)c1-n1nnc3c1CCCCCC3)CCCCCC2 | > 21.9 | > 21.9 | – |
| COc1ccc(/C(C#N)=C/c2cccc(OC)c2OC)cc1 | > 200 | 28.2 | – |
| CCOC(=O)Nn1cnnc1C | > 200 | > 200 | – |
| CC(=O)/C=C/c1ccc(C2CC(C)=Nc3c(ccc4c3C(=O)c3ccccc3C4=O)N2)cc1 (stereo not given) | > 6.31 | > 6.31 | – |
| COc1cc(CC2c3cc(OC)c(OC)cc3CC[N+]2(C)C)c(Oc2cc(CC3c4cc(OC)c(OC)cc4CC[N+]3(C)C)ccc2OC)cc1OC (stereo not given) | – | – | inactive |
| C=CCc1c(O)c2c(c3oc(=O)cc(C)c13)CC(C)O2 (stereo not given) | – | – | inactive |
| CCN(CC)CCN1CC(=O)N2Cc3ccccc3CN2C(=O)C1 | > 200 | > 200 | – |

| SMILES | EC50 [µM] | IC50 [µM] | outcome |
| --- | --- | --- | --- |
| CN(/N=C/c1ccccn1)C1=NCCCCN1 | > 200 | > 200 | – |
| c1ccc(NC2(c3nnnn3C3CCCCC3)CCNCC2)cc1 | > 200 | 34.7 | – |
| COc1ccc(S(=O)(=O)c2ccc(C(=O)O)cc2)cc1 | > 200 | > 200 | – |
| COc1cc(CCCl)c(CC2=NCCc3cc(OC)c(OC)cc32)cc1OC | > 200 | 31.6 | – |
| CCOC(=O)C(C)c1nc2cc(C(F)(F)F)ccc2[nH]c1=O (stereo not given) | > 200 | 81.3 | – |
| CC(C)OC(=S)Nc1ccc(Cl)c(/C=N/OC(C)(C)C)c1 | > 24 | 23.4 | – |
| CCOP(=O)(OCC)/C(=C/NC(=S)c1cccnc1)C(=O)OC | > 200 | 34.7 | – |
| C#CCOC(=O)C(=[N+]=[N-])C(=O)CC(C)C | > 200 | > 200 | – |
| CCC1(O)C(=O)c2ccccc2N(c2ccccc2)C1=O (stereo not given) | > 200 | > 200 | – |
| Clc1ccc(Nc2nc3ccccc3nc2-c2cccs2)cc1Cl | > 14.1 | > 14.1 | – |
| Cc1ccc(NP(=O)(Oc2ccccc2)N(CCCl)CCCl)cc1 (stereo not given) | > 35.5 | 15.8 | – |
| CCOC(=O)N(c1ccccc1)c1cc(=O)n2ccccc2n1 | > 200 | > 200 | – |
| Cc1cccc(-c2nc(=S)[nH][nH]2)c1 | > 955 | 417 | – |
| O=C(Cc1nc2ccccc2[nH]1)N/N=C1\SCC(=O)N1c1ccc(Cl)cc1 | > 182 | > 182 | – |
| O=C1CC[C@@]23CC(=O)O[C@@H]2CCCC3C1 (stereo not given in full) | – | – | inactive |
| COc1cccc(C2CC(=O)c3cccn32)c1 (stereo not given) | – | – | inactive |
| CC(=O)N1C(Nc2ccccn2)CCN1c1ccccc1 (stereo not given) | > 200 | 38 | – |
| COC1C(C)OC(OC2CC(C)(O)C(C(=O)O)c3cc4c(c(O)c32)C(=O)c2c(O)cc3c(c2C4=O)OC2OC3(C)C(O)C(N(C)C)C2O)C(OC)C1(C)OC (stereo not given) | – | – | inactive |
| Cc1cccc2c(=O)c3c(O)cc(O)cc3[nH]c12 | > 200 | 14.5 | – |
| COc1ccc(CCN(C)CCCC2(C#N)c3ccccc3-c3ccccc32)cc1OC | > 60.3 | 47.9 | – |
| OCC1OC(c2scc3c(=S)nc[nH]c23)C(O)C1O (stereo not given) | > 200 | 12.6 | – |

| SMILES | EC50 [µM] | IC50 [µM] | outcome |
| --- | --- | --- | --- |
| NC(N)=NS(=O)(=O)c1ccc(N=c2c3ccccc3n(Cc3ccccc3)c3ccccc23)cc1 | – | – | inactive |
| CC1(C)COC(c2c(-c3ccccc3)noc2CS(=O)c2ccccc2)=N1 (stereo not given) | > 100 | 42.7 | – |
| O=C1CSC(Cc2nc3ccccc3o2)=N1 | > 200 | 4.79 | – |
| O=C1CCCC2=C1CC1=C(CCCC1=O)N2c1ccc(-c2ccccc2)cc1 | – | – | inactive |
| C1CCC2(CC1)SSSC1(CCCCC1)SS2 | > 100 | > 100 | – |
| N#CCCN(C1=NN(C(=O)CC(=O)Nc2cccc(Cl)c2)C(c2ccccc2)C1)c1ccccc1Cl (stereo not given) | > 69.2 | > 69.2 | – |
| C1CCC2(CC1)C[N+]1(CCCC1)C1(CCC1)O2 | > 200 | > 200 | – |
| O=C1NC2OC(CO)C(O)C2O1 (stereo not given) | > 200 | > 200 | – |
| CN1C(=O)CC(c2cccc(C3CC(=O)N(C)C3=O)n2)C1=O (stereo not given) | > 832 | > 832 | – |
| CC1(C)C(O)CC[C@@]2(C)C1CC[C@]1(C)C2CC=C2[C@@H]3C[C@](C)(C(=O)O)CC[C@]3(C)CCC21C (stereo not given in full) | > 200 | 27.5 | – |
| CCOC(=O)c1c(-c2cccc3ccccc23)c(C#N)c(=S)n(C2OC(COC(C)=O)C(OC(C)=O)C(OC(C)=O)C2OC(C)=O)c1C (stereo not given) | > 200 | 7.76 | – |
| CC(=O)C[P+](c1ccccc1)(c1ccccc1)c1ccccc1 | > 200 | 61.7 | – |
| C=C1C(=O)OC2C=C(CCC(C)=O)C(C)C(OC(C)=O)CC12 (stereo not given) | – | – | inactive |
| CC1CC(=O)Nc2nc3ccccc3n21 (stereo not given) | > 200 | > 200 | – |
| O=[N+]([O-])c1ccc(-c2cnc3ccccn23)cc1 | > 105 | > 105 | – |
| CC(=O)Oc1c2c(cc3c1C(=O)NC1C3=CC(OC(C)=O)[C@@H](OC(C)=O)[C@H]1OC(C)=O)OCO2 (stereo not given in full) | – | – | inactive |
| O=C1CC(O)CC(=O)C1=C(O)CCCCCCCCCCc1ccccc1 (stereo not given) | > 19.5 | > 19.5 | – |
| N#CC(C#N)=Cc1ccc(C#N)cc1 | > 141 | 20.4 | – |
| O=C(O)CCCC#CCCCC(=O)O | > 200 | > 200 | – |
| CN1CCc2c(sc(N)c2C#N)C1 | – | – | inactive |
| CC1(C)O[C@H]2OC3CCC(=O)CC3(O)[C@H]2O1 (stereo not given in full) | – | – | inactive |
